From ChEMBL document CHEMBL1201862, “PubChem BioAssay data set” (2004)
Activity calls are given as the source filed them.

Experiments:
Streptococcus = test: GAS UMAA2166 growth inhibition – luminescence, BacTiterGlo, counter-screen for streptokinase expression inhibitor project, dose response (AID 1915); format: functional, organism-based;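 also: potency for reduction of bacterial viability or growth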
[1] = alpha-synuclein stem-loop luciferase translation blockers – H4 neuroglioma cells, luminescence, confirmation (AID 1988); format: functional, cell-based
[2] = Luminescence Cell-Based Dose Response HTS to Identify Inhibitors of 5'UTR Stem-Loop Driven Prion Protein mRNA Translation in H4 Neuroglioblastoma Cells. [Related pubchem assays: 1827 (Project Summary), 1813 (Primary HTS)]; format: functional
SUMO-activating enzyme [3] = target: T1, SUMO-activating enzyme (Homo sapiens, UniProt Q9UBT2); test: blockers of UBC9-mediated SUMO conjugation – biochemical, AlphaScreen, SUMOylation inhibitor project, confirmation (AID 2018); format: functional
[4] = tested on: Streptococcus sp. 'group A'; test: Streptococcus pyogenes SK(-)GAS viability under kanamycin – luminescence, BacTiterGlo, confirmation, counter-screen for streptokinase expression inhibitor project, dose response (AID 1900); format: functional, organism-based
[5] = blockers of HIV-1 ZM109 envelope-driven cell-cell fusion – HeLa effector, CEM target cells, luciferase, cherry-pick, dose response (AID 652058); format: functional, cell-based;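 also: luciferase signal from HIV-1 Env mediated cell-cell fusion of effector and target cells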
SUMO-activating enzyme [6] = target: T1, SUMO-activating enzyme; test: blockers of SAE1/SAE2–UBC9 SUMO transfer – biochemical, HTRF, uHTS, primary screen (AID 2006); format: protein-complex assay
[7] = luciferase reporter signal suppression in cells – H4 neuroglioma cells, luminescence, dose response (AID 1990); format: functional, cell-based
[8] = blockers of HIV-1 envelope-mediated cell-cell fusion – cherry-pick, dose response (AID 652057); format: functional, cell-based
[9] = off-target signal loss in HeLa-CEM21 co-culture – HeLa F-luc CTL cells, cherry-picked, counter-screen for HIV-1 Env fusion inhibitor project, dose response (AID 652040); format: functional, cell-based;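 also: potency for signal decrease marking cytotoxic or nonspecific inhibition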
[10] = HIV-1 AD8 envelope cell-cell fusion blockers – cherry-pick, dose response (AID 652062); format: functional, cell-based;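 also: luciferase signal from cell-cell fusion driven by HIV-1 clade B AD8 Env; potency is for inhibitors of fusion seen as a drop in luminescence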
[11] = target: G-protein coupled receptor 55 (Homo sapiens, UniProt Q9Y2T6); test: inhibition of LPI-stimulated GPR55 beta-arrestin translocation – imaging, U2OS, beta-arrestin-GFP, LPI agonist, primary screen (AID 2013); format: functional;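 also: antagonist potency measured as reduced agonist-driven arrestin aggregation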
[12] = Luminescence Cell-Based Dose Retest to Confirm Inhibitors of Cancer Stem Cells. [Related pubchem assays (depositor defined):AID2717, AID2721]; format: functional; details: Homo sapiens
[13] = target: Lysosomal acid glucosylceramidase (Homo sapiens, UniProt P04062); test: Dose response cell-based high throughput screening assay to identify enhancers of beta-glucosidase activity. [Related pubchem assays: 784 ]; format: functional
[14] = NIH3T3 cell viability loss – ATP luminescence, mouse fibroblasts, counter-screen, dose response (AID 2010); format: functional, cell-based;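 also: cells exposed to compound for about 90 hours before reading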
[15] = target: T2, Kappa-type opioid receptor (Homo sapiens, UniProt P41145); format: functional
INS1 = test: INS-1E survival protection against cytokine death – cell-based, luminescence, retest, dose response (AID 449756); format: functional; details: Rattus norvegicus, INS1;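 also: cell death triggered by IL-1 beta plus TNF-alpha plus IFN-gamma mixture; protective hits raise ATP signal compared with cytokine alone wells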
[16] = target: T2, Kappa-type opioid receptor; format: functional; remark: listed apart in the source
Beta-galactosidase = Beta-galactosidase (Escherichia coli, UniProt Q8VNN2); format: functional
[17] = Trypanosoma cruzi growth suppression in host cells – NIH3T3 host cells, beta-gal luminescence, confirmation (AID 2044); format: functional, cell-based;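 also: intracellular parasites grown in NIH/3T3 mouse fibroblasts as host cells; luminescent beta-galactosidase reporter signal from transgenic T. cruzi replicating inside host cells; inhibitors lower the luminescence signal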
[18] = Luminescence Cell-Based Dose Confirmation HTS to Identify Inhibitors of Platelet Dense Granule Release. [Related pubchem assays: 1663 (Primary HTS), 1678 (Summary of Project)]; format: functional
[19] = target: Luciferin 4-monooxygenase (Photinus pyralis, UniProt P08659); test: inhibition of purified Photinus pyralis luciferase – biochemical, luminescence, dose response (AID 1891)
[20] = target: Intestinal-type alkaline phosphatase (Homo sapiens, UniProt P09923); test: Dose Response confirmation of uHTS hits from a small molecule inhibitors of human intestinal alkaline phosphatase via a luminescent assay. [Related pubchem assays (depositor defined):AID2544, AID2574]; format: functional
[21] = Luminescence Cell-Based Dose Response HTS to Identify Activators of Luciferase Translation or Activity in H4 […] Cells. [Related pubchem assays: 1829 (Project Summary), 1814 (Primary HTS)]; format: functional
[22] = target: Voltage-dependent T-type calcium channel subunit alpha-1H (Homo sapiens, UniProt O95180); format: functional;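 also: channel activity triggered by adding a high calcium stimulation buffer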
Coagulation factor XII = target: T3, Coagulation factor XII (Homo sapiens, UniProt P00748); test: activated coagulation factor XII inhibitor potency, concentration-effect curve, cell-free (AID 716); format: functional
T3 sequence (P00748 whole entry): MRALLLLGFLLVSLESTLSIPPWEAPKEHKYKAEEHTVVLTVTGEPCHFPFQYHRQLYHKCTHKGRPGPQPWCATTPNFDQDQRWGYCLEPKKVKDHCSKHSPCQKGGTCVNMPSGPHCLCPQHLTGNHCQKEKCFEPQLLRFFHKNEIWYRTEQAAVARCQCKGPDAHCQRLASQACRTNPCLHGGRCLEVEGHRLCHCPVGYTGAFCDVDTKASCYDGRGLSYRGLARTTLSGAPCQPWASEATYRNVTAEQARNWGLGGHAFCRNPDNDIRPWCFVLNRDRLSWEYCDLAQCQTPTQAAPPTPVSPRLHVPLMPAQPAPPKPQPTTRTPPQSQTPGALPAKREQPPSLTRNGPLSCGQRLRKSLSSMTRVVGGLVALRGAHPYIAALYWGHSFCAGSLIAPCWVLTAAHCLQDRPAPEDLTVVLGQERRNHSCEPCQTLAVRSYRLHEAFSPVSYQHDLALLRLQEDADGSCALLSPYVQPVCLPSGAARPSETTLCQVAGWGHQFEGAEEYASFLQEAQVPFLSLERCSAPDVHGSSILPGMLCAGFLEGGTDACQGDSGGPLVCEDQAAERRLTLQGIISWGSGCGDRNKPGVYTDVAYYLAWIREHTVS

cells = format: functional
[23] = HepG2 cell cytotoxicity, dose response, cytotoxicity control for non-replicating M. tuberculosis project (AID 489018); format: functional; details: Mycobacterium tuberculosis
[24] = THP-1 cell cytotoxicity, dose response, cytotoxicity control for non-replicating M. tuberculosis project (AID 489025); format: functional
Hexokinase HKDC1 = target: T4, Hexokinase HKDC1 (Homo sapiens, UniProt Q2TB90); test: inhibition of HKDC1 glucose phosphorylation – biochemical, W721R variant, dose response (AID 504729); format: functional
T4 sequence (Q2TB90 whole entry): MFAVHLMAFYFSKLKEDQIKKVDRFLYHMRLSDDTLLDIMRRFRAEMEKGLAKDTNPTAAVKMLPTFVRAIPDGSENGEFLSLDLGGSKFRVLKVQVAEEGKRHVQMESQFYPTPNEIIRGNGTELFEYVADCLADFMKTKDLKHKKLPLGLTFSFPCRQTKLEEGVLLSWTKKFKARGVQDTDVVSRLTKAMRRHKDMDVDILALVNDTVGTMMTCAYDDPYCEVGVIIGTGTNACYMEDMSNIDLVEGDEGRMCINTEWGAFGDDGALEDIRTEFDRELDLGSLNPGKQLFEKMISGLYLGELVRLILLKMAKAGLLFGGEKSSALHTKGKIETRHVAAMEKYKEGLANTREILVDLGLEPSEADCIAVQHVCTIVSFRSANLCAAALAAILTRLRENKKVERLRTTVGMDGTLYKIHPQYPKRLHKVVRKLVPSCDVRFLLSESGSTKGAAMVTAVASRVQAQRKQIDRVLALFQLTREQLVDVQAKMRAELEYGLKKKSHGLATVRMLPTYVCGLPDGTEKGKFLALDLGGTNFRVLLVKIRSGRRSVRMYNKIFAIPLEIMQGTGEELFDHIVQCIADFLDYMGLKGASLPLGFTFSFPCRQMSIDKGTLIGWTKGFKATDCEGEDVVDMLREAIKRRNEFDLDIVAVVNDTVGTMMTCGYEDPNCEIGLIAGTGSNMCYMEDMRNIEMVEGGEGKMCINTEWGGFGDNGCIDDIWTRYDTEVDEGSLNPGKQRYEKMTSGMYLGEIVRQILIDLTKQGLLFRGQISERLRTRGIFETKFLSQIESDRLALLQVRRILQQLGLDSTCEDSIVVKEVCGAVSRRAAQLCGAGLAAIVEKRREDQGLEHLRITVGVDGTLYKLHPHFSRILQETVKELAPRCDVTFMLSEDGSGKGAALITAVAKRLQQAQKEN

Sequence of G-protein coupled receptor 55 (Q9Y2T6 whole entry): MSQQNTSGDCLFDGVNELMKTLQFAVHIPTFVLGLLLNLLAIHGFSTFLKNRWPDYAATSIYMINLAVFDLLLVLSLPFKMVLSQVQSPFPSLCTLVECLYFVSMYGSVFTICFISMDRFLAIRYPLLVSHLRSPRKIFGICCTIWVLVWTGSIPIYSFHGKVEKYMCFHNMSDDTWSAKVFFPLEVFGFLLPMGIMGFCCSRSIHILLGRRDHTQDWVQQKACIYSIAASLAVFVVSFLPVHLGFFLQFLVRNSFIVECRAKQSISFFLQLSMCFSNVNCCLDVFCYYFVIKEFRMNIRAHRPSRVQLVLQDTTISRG
Sequence of Voltage-dependent T-type calcium channel subunit alpha-1H (O95180 whole entry): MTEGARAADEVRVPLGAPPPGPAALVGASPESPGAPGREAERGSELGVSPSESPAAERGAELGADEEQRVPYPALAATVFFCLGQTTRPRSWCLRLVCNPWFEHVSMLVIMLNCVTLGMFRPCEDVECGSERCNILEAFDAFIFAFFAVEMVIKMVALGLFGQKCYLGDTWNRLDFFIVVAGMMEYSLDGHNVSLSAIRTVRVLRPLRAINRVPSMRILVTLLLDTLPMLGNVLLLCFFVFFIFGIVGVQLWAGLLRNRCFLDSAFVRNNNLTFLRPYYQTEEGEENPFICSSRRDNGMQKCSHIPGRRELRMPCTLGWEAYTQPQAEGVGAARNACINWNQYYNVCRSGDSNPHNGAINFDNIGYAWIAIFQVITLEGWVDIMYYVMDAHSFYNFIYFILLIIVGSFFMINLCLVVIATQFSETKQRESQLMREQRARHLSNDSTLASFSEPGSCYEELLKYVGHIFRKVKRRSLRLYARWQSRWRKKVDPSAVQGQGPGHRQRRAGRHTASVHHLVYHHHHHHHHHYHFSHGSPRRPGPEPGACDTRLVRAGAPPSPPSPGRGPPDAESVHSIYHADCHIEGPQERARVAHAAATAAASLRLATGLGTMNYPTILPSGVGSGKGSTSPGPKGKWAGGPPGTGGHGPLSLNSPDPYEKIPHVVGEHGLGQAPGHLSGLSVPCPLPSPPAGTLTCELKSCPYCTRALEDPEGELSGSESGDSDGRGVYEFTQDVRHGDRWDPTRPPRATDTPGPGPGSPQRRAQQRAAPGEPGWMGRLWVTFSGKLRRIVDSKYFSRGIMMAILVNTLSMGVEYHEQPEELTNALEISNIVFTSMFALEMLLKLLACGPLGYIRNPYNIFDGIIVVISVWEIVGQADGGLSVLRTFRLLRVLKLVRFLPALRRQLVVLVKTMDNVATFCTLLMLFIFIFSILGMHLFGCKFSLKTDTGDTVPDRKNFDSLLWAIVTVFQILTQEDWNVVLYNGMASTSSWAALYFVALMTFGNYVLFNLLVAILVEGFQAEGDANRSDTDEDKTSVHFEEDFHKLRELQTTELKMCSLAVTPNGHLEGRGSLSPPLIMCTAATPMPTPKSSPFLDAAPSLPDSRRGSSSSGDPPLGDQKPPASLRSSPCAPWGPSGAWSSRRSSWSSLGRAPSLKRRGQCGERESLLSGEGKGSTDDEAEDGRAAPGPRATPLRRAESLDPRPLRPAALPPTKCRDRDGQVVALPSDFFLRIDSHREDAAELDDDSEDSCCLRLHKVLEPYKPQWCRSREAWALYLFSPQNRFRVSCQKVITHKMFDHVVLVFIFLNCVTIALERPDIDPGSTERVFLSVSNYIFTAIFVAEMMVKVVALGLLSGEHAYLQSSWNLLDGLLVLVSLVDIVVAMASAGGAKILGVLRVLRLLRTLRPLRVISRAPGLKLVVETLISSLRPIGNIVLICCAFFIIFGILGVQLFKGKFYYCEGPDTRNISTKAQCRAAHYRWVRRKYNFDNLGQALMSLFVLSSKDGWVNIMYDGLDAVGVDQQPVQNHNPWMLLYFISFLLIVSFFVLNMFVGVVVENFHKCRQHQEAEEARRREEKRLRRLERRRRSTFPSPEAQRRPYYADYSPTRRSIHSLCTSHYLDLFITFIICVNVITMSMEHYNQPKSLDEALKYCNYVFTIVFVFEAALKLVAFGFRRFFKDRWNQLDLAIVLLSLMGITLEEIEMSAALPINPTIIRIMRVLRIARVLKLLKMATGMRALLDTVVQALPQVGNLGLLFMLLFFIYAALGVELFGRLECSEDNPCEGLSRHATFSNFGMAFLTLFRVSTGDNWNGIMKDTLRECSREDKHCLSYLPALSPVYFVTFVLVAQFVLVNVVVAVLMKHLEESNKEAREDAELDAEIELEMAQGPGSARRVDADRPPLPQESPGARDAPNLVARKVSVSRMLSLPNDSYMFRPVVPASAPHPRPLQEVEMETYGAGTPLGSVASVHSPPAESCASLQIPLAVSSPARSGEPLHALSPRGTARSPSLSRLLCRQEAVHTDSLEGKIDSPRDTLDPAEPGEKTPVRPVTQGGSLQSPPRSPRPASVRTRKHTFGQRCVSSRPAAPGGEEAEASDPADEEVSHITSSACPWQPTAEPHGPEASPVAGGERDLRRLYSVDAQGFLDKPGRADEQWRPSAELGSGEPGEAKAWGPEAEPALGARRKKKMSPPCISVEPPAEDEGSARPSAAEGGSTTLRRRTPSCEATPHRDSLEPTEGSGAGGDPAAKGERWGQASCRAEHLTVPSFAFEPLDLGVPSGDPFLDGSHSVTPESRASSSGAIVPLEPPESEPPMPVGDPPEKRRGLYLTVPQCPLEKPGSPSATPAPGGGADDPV
T2 sequence (P41145 whole entry): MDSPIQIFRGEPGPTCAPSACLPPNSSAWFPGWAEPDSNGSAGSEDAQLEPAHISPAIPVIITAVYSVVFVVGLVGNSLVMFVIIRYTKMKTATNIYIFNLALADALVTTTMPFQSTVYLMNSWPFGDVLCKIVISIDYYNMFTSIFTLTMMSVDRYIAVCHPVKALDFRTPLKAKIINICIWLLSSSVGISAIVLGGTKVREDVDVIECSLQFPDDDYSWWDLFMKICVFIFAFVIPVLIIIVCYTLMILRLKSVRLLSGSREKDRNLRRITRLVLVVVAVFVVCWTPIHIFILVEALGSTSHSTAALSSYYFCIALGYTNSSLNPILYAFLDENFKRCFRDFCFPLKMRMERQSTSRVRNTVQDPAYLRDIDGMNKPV
T1 sequence (Q9UBE0 whole entry): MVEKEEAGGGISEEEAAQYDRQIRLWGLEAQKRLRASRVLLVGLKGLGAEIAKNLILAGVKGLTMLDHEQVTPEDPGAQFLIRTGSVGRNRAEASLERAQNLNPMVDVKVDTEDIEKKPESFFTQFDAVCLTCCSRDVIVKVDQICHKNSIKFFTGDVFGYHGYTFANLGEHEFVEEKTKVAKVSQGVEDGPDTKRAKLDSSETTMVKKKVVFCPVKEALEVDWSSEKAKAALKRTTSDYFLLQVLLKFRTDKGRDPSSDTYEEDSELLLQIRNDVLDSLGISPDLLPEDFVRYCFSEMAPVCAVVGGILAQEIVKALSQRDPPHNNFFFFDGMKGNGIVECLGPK
T1 sequence (Q9UBT2 whole entry): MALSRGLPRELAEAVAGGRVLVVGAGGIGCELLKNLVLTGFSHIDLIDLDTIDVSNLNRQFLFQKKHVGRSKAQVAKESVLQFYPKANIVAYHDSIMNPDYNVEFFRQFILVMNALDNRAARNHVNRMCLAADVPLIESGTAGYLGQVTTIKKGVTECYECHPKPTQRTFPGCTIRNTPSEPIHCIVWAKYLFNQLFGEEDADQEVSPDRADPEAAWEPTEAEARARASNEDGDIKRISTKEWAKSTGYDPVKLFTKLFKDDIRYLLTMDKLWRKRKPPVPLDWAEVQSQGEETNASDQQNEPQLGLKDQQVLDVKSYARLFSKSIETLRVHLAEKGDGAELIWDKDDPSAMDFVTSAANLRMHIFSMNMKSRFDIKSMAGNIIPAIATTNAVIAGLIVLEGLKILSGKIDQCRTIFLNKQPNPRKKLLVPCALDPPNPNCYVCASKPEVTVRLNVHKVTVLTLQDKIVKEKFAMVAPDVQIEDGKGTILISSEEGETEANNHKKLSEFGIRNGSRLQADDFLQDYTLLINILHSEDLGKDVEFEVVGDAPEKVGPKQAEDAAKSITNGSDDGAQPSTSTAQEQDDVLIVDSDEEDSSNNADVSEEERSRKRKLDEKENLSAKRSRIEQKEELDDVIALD
Sequence of Intestinal-type alkaline phosphatase (P09923 whole entry): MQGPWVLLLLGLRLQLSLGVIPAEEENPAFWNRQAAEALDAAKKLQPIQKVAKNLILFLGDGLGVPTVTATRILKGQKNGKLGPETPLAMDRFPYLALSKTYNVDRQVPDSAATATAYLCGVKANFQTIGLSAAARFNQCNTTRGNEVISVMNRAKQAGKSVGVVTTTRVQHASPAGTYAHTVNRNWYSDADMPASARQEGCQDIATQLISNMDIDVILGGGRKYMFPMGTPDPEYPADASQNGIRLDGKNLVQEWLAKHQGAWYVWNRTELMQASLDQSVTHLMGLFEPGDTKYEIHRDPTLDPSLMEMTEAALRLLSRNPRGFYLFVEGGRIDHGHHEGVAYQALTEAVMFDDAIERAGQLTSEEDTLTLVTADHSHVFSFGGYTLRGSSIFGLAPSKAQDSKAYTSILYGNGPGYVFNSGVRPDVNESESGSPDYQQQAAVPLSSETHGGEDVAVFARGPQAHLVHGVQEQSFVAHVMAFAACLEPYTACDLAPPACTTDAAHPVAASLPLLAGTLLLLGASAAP

CCCCCCCn1c(NC(=O)CC)nc2ccccc21
EC50 (Streptococcus): 10.1 µM (active) | EC50 [1]: 9.8 µM (active) | EC50 [2]: 13.8 µM (active) | IC50 (SUMO-activating enzyme [3]): 1.62 µM (active) | EC50 [4]: 2.13 µM (active) | AC50 [5]: 47.3 µM (active) | IC50 (SUMO-activating enzyme [6]): 7.82 µM (active) | EC50 [7]: 11.4 µM (active) | AC50 [8]: 34.3 µM (active) | AC50 [9]: > 70 µM (inactive) | AC50 [10]: 39.4 µM (active)

COC(=O)C1=CN(C(C)C)C=C(C(=O)OC)C1c1cc2c(cc1Br)OCO2
IC50 [11]: 4.97 µM (active)

N#CCc1ccc(NC(=O)Nc2cccc(Cl)c2)cc1
AC50 [12]: 5.19 µM (active) | EC50 [13]: > 10 µM (not active)

Fc1ccccc1/C=N/Nc1nc(-c2ccccn2)nc2ccccc12
EC50 [1]: 0.456 µM (active) | EC50 [14]: 54.9 µM (active) | IC50 [15]: 6.19 µM (active) | EC50 [2]: 1.03 µM (active) | AC50 (INS1): 0.984 µM (active) | IC50 [16]: > 32 µM | EC50 (Beta-galactosidase): > 31.5 µM (inactive) | EC50 [17]: 0.357 µM (active)

COC(=O)c1ccc(C(=O)OC)c(NC(=O)Nc2ccc3c(c2)OCO3)c1
EC50 [18]: > 112 µM (not active) | EC50 [19]: > 112 µM (not active) | IC50 [20]: > 100 µM (inactive)

CCOC(=O)c1cnc(SCC(=O)c2ccccc2)nc1N
IC50 [20]: > 100 µM (inactive) | EC50 [21]: 0.195 µM (active)

Cc1ccc(NC(=O)c2cc(S(=O)(=O)N3CCCCC3)cs2)cc1
EC50 [22]: 10.3 µM (active)

Cc1noc(C)c1C(=O)NC(C)c1ccc2c(c1)OCO2 (stereo unspecified)
IC50 (Coagulation factor XII): > 50 µM (inactive)

O=C(CN1C(=O)C2C3C=CC(C3)C2C1=O)NCCC1=CCCCC1 (stereo unspecified)
IC50 (Coagulation factor XII): > 50 µM (inactive)

Clc1c(OCCCn2ccnc2)ccc2ccccc12
IC50 (cells): 9.76 µM (active) | EC50 [14]: > 60 µM (not active) | CC50 [23]: > 20 µM (active) | CC50 [24]: 37.1 µM (active) | EC50 [17]: 0.708 µM (active)

COc1ccc(CNCCC(c2ccccc2)c2ccc3c(c2)OCO3)cc1 (stereo unspecified)
EC50 [14]: > 60 µM (not active) | AC50 (INS1): 9.28 µM (active) | IC50 [11]: 0.965 µM (active) | EC50 [17]: 3.27 µM (active)

c1ccc(OCCSc2nc3ccccc3[nH]2)cc1
EC50 [22]: 5.96 µM (active)

O=C(O)c1ccc2ncsc2c1
IC50 (Hexokinase HKDC1): 7.69 µM (active)
